According to patent US11673890B2, “N1-pyrazolospiroketone acetyl-CoA carboxylase inhibitors” (Pfizer Inc., priority 2010, dated 2023):
Read-outs that look alike come from different tables or passages of the source.

Tests used:
[1] = molecular target: T1, recombinant human ACC1 (rhACC1) (Homo sapiens, UniProt Q13085, DEL44-44); test: recombinant hACC1 Transcreener assay (ADP detection FP); format: biochemical
T1 construct: infected with recombinant baculovirus containing full length human ACC1 cDNA; made in house; host or cells: SF9 insect cells (baculovirus)
Method: For example direct inhibition of ACC activity, for the compound of Formula (1) was determined using preparations of recombinant human ACC1 (rhACC1) and recombinant human ACC2 (rhACC2).
[1] Preparation of rhACC1. Two liters of SF9 cells, infected with recombinant baculovirus containing full length human ACC1 cDNA, were suspended in ice-cold lysis buffer (25 mM Tris, pH 7.5; 150 mM NaCl; 10% glycerol; 5 mM imidazole (EMD Bioscience; Gibbstown, N.J.); 2 mM TCEP (BioVectra; Charlottetown, Canada); Benzonase nuclease (10000 U/100 g cell paste; Novagen; Madison, Wis.); EDTA-free protease inhibitor cocktail (1 tab/50 mL; Roche Diagnostics; Mannheim, Germany). Cells were lysed by 3 cycles of freeze-thaw and centrifuged at 40,000×g for 40 minutes (4° C.). Supernatant was directly loaded onto a HisTrap FF crude column (GE Healthcare; Piscataway, N.J.) and eluted with an imidazole gradient up to 0.5 M over 20 column volumes (CV). ACC1-containing fractions were pooled and diluted 1:5 with 25 mM Tris, pH 7.5, 2 mM TCEP, 10% glycerol and direct loaded onto a CaptoQ (GE Healthcare) column and eluted with an NaCl gradient up to 1 M over 20 CV's. Phosphate groups were removed from purified ACC1 by incubation with lambda phosphatase (100 U/10 μM target protein; New England Biolabs; Beverly, Mass.) for 14 hours at 4° C.; okadaic acid was added (1 μM final concentration; Roche Diagnostics) to inhibit the phosphatase. Purified ACC1 was exchanged into 25 mM Tris, pH 7.5, 2 mM TCEP, 10% glycerol, 0.5 M NaCl by 6 hour dialysis at 4° C. Aliquots were prepared and frozen at −80° C.
[2] […] The final conditions for the assay were 50 mM HEPES, pH 7.2, 10 mM MgCl2, 7.5 mM tripotassium citrate, 2 mM DTT, 0.1 mg/mL BSA, 30 μM acetyl-CoA, 50 μM ATP, and 10 mM KHCO3. Typically, a 10 μl reaction was run for 120 min at 25° C., and 10 μl of Transcreener stop and detect buffer was added and the combination incubated at room temp for an additional 1 hour.
All of the examples in both assays were run with a minimum of n=3.

[2] = molecular target: T2, recombinant human ACC2 (rhACC2) (Homo sapiens, UniProt O00763, V2141I); test: recombinant hACC2 Transcreener assay (ADP detection FP); format: biochemical; details: 50 μM ATP, minimum of n=3
T2 construct: a full length Cytomax clone of ACC2 was purchased from Cambridge Bioscience Limited; made in house; host or cells: CHO cells (tetracycline-inducible, pcDNA5 FRT TO-TOPO)
T2 sequence (O00763 whole entry V2141I): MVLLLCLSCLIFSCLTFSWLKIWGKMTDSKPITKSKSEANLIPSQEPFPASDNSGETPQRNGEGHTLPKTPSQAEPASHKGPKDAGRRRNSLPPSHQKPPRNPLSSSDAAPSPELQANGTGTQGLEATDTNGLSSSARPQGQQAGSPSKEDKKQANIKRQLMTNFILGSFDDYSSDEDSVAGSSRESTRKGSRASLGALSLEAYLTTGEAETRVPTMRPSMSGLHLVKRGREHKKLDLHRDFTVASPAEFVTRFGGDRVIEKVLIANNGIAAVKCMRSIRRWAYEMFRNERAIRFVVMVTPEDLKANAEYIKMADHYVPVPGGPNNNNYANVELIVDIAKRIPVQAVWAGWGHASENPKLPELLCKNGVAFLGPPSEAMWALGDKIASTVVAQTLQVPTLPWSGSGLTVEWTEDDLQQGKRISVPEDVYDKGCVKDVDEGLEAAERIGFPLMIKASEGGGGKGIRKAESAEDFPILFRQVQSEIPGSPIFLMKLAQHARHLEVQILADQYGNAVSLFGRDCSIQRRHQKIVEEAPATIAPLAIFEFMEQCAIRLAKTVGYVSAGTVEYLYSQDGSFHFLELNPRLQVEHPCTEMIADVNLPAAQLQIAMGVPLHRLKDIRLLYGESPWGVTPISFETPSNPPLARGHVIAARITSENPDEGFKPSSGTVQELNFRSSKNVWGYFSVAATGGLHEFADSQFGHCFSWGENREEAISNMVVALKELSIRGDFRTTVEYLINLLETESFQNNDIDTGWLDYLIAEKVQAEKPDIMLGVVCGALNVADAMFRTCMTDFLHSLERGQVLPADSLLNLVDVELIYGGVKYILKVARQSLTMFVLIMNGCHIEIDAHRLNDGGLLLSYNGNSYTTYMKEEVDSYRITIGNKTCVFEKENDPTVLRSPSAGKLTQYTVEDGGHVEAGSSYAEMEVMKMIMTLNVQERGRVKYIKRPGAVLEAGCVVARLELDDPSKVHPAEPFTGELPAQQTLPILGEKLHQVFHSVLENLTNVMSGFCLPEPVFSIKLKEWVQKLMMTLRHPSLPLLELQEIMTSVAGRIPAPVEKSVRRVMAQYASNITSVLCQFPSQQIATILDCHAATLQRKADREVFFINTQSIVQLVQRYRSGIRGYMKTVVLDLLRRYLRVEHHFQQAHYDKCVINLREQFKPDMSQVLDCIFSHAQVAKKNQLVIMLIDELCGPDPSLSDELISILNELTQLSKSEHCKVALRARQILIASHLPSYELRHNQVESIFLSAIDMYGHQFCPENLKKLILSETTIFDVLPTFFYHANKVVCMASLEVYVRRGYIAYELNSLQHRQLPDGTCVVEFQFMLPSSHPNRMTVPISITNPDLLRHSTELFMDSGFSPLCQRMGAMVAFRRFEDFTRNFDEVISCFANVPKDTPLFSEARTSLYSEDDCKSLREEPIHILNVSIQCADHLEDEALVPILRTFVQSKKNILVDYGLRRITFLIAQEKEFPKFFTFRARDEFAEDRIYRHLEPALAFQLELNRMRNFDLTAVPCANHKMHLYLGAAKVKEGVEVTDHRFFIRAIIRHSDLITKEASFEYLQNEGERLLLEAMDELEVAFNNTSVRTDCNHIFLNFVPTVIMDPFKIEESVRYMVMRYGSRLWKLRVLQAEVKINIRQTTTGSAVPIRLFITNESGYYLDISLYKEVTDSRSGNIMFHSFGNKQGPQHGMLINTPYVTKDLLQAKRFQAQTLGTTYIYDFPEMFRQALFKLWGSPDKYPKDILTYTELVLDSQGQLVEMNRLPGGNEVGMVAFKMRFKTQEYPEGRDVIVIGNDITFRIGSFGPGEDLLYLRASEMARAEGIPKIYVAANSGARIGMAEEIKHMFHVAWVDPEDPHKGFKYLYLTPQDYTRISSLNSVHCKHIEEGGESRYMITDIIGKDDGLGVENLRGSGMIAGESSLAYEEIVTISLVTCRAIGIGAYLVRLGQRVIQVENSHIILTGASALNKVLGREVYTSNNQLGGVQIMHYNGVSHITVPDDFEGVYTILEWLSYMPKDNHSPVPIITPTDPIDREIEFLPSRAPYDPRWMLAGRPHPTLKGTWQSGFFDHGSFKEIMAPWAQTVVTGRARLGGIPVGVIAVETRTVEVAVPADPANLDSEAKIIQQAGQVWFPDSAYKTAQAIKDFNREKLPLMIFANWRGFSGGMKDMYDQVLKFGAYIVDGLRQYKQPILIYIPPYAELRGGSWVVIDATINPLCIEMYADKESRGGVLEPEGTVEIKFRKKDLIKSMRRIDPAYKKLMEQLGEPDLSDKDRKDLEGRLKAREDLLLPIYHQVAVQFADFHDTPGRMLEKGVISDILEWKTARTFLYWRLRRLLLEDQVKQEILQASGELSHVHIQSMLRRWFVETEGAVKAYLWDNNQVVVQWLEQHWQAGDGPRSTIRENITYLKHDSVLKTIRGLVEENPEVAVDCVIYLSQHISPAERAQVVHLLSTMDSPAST
Method: For example direct inhibition of ACC activity, for the compound of Formula (1) was determined using preparations of recombinant human ACC1 (rhACC1) and recombinant human ACC2 (rhACC2). Representative sequences of the recombinant human ACC1 and ACC2 that can be used in the assay are provided in FIG. 1 (SEQ ID NO. 1) and FIG. 2 (SEQ. ID NO. 2), respectively.
[3] Preparation of rhACC2. Human ACC2 inhibition was measured using purified recombinant human ACC2 (hrACC2). Briefly, a full length Cytomax clone of ACC2 was purchased from Cambridge Bioscience Limited and was sequenced and subcloned into PCDNA5 FRT TO-TOPO (Invitrogen, Carlsbad, Calif.). The ACC2 was expressed in CHO cells by tetracycline induction and harvested in 5 liters of DMEM/F12 with glutamine, biotin, hygromycin and blasticidin with 1 μg/mL tetracycline (Invitrogen, Carlsbad, Calif.). The conditioned medium containing ACC2 was then applied to a Softlink Soft Release Avidin column (Promega, Madison, Wis.) and eluted with 5 mM biotin. 4 mgs of ACC2 were eluted at a concentration of 0.05 mg/mL (determined by A280) with an estimated purity of 95% ([…]). The purified ACC2 was dialyzed in 50 mM Tris, 200 mM NaCl, 4 mM DTT, 2 mM EDTA, and 5% glycerol. The pooled protein was frozen and stored at −80° C., with no loss of activity upon thawing. For measurement of ACC2 activity and assessment of ACC2 inhibition, test compounds were dissolved in DMSO and added to the rhACC2 enzyme as a 5× stock with a final DMSO concentration of 1%.
[4] Measurement of human ACC2 inhibition. hACC2 was assayed in a Costar #3676 (Costar, Cambridge, Mass.) 384-well plate using the Transcreener ADP detection FP assay kit (Bellbrook Labs, Madison, Wis.) using the manufacturer's recommended conditions for a 50 uM ATP reaction. The final conditions for the assay were 50 mM HEPES, pH 7.2, 5 mM MgCl2, 5 mM tripotassium citrate, 2 mM DTT, 0.1 mg/mL BSA, 30 μM acetyl-CoA, 50 μM ATP, and 8 mM KHCO3. Typically, a 10 μl reaction was run for 50 min at 25° C., and 10 μl of Transcreener stop and detect buffer was added and the combination incubated at room temp for an additional 1 hour. The data was acquired on an Envision Fluorescence reader (Perkinelmer) using a 620 excitation Cy5 FP general dual mirror, 620 excitation Cy5 FP filter, 688 emission (S) and a 688 (P) emission filter.
The results using the recombinant hACC1 and recombinant hACC2 Transcreener assays described above are summarized in the table below for the Compounds of Formula (I) exemplified in the Examples above. All of the examples in both assays were run with a minimum of n=3.

[3] = recombinant hACC1 Transcreener assay, 50 μM ATP, minimum of n=3, read-out: hACC1

IC50 [1, 3]	IC50 [2]	Compound	IC50 [1]
6.7 nM	5.35 nM	CC(C)n1ncc2c1C(=O)CC1(CCN(C(=O)c3cc4c(-c5cccc(C(=O)O)c5)ccnc4[nH]3)CC1)C2 [Example 28, 3-{2-[(1-isopropyl-7-oxo-1,4,6,7-tetrahydro-1′H-spiro[indazole-5,4′-piperidin]-1′-yl)carbonyl]-1H-pyrrolo[2,3-b]pyridin-4-yl}benzoic acid]	–
9.75 nM	11.6 nM	CC(C)n1ncc2c1C(=O)CC1(CCN(C(=O)c3cc4c(-c5ccc(C(=O)O)cc5)cccc4[nH]3)CC1)C2 [Example 16, 4-{2-[(1-isopropyl-7-oxo-1,4,6,7-tetrahydro-1′H-spiro[indazole-5,4′-piperidin]-1′-yl)carbonyl]-1H-indol-4-yl}benzoic acid]	–
44.4 nM	29.3 nM	CC(C)n1ncc2c1C(=O)CC1(CCN(C(=O)c3cc4c(-c5cccc(C(=O)O)c5)ncnc4[nH]3)CC1)C2 [Example 36, 3-{6-[(1-isopropyl-7-oxo-1,4,6,7-tetrahydro-1′H-spiro[indazole-5,4′-piperidin]-1′-yl)carbonyl]-7H-pyrrolo[2,3-d]pyrimidin-4-yl}benzoic acid]	–
16.1 nM	18.8 nM	CC(C)n1ncc2c1C(=O)CC1(CCN(C(=O)c3cc4c(-c5ccc(C(=O)O)cc5)nccc4[nH]3)CC1)C2 [Example 30, 4-{2-[(1-isopropyl-7-oxo-1,4,6,7-tetrahydro-1′H-spiro[indazole-5,4′-piperidin]-1′-yl)carbonyl]-1H-pyrrolo[3,2-c]pyridin-4-yl}benzoic acid]	–
600 nM	202 nM	CC(C)Nc1nc(-c2ccc(C(=O)O)cc2)ccc1C(=O)N1CCC2(CC1)CC(=O)c1c(cnn1C(C)C)C2 [Example 25, 4-{6-(isopropylamino)-5-[(1-isopropyl-7-oxo-1,4,6,7-tetrahydro-1′H-spiro[indazole-5,4′-piperidin]-1′-yl)carbonyl]pyridin-2-yl}benzoic acid]	–
2910 nM	1140 nM	CC(C)n1ncc2c1C(=O)CC1(CCN(C(=O)c3cc(-c4ccc(C(=O)O)cc4)[nH]c(=O)c3)CC1)C2 [Example 27, 4-{4-[(1-isopropyl-7-oxo-1,4,6,7-tetrahydro-1′H-spiro[indazole-5,4′-piperidin]-1′-yl)carbonyl]-6-oxo-1,6-dihydropyridin-2-yl}benzoic acid]	–
11.6 nM	15.7 nM	CC(C)n1ncc2c1C(=O)CC1(CCN(C(=O)c3nc4cc(-c5ccc(C(=O)O)cc5)ccc4[nH]3)CC1)C2 [Example 46, 4-{2-[(1-isopropyl-7-oxo-1,4,6,7-tetrahydro-1′H-spiro[indazole-5,4′-piperidin]-1′-yl)carbonyl]-1H-benzimidazol-5-yl}benzoic acid]	–
180 nM	268 nM	COc1cc(C(=O)N2CCC3(CC2)CC(=O)c2c(cnn2C(C)(C)C)C3)cc(-c2cccc(C(=O)O)c2)n1 [Example 11, 3-{4-[(1-tert-butyl-7-oxo-1,4,6,7-tetrahydro-1′H-spiro[indazole-5,4′-piperidin]-1′-yl)carbonyl]-6-methoxypyridin-2-yl}benzoic acid]	–
33.5 nM	19.9 nM	CC(C)n1ncc2c1C(=O)CC1(CCN(C(=O)c3cc4c(-c5ccc(C(=O)O)cc5)cncc4[nH]3)CC1)C2 [Example 38, 4-{2-[(1-isopropyl-7-oxo-1,4,6,7-tetrahydro-1′H-spiro[indazole-5,4′-piperidin]-1′-yl)carbonyl]-1H-pyrrolo[2,3-c]pyridin-4-yl}benzoic acid]	–
6.6 nM	3.2 nM	CC(C)n1ncc2c1C(=O)CC1(CCN(C(=O)c3cc(-c4ccc(C(=O)O)cc4)c4cc[nH]c4c3)CC1)C2 [Example 37, 4-{6-[(1-isopropyl-7-oxo-1,4,6,7-tetrahydro-1′H-spiro[indazole-5,4′-piperidin]-1′-yl)carbonyl]-1H-indol-4-yl}benzoic acid]	–
3140 nM	557 nM	CC(C)Nc1nc(-c2ccc(C(=O)O)cc2)ccc1C(=O)N1CCC2(CC1)CC(=O)c1c(cnn1C(C)(C)C)C2 [Example 24, 4-{5-[(1-tert-butyl-7-oxo-1,4,6,7-tetrahydro-1′H-spiro[indazole-5,4′-piperidin]-1′-yl)carbonyl]-6-(isopropylamino)pyridin-2-yl}benzoic acid]	–
8.6 nM	15.2 nM	CC(C)n1ncc2c1C(=O)CC1(CCN(C(=O)c3cc4ccc(-c5cccc(C(=O)O)c5)cc4[nH]3)CC1)C2 [Example 41, 3-{2-[(1-isopropyl-7-oxo-1,4,6,7-tetrahydro-1′H-spiro[indazole-5,4′-piperidin]-1′-yl)carbonyl]-1H-indol-6-yl}benzoic acid]	–

Compound	IC50 [1, 3]	IC50 [2]	IC50 [1]
4-{5-[(1-tert-butyl-7-oxo-1,4,6,7-tetrahydro-1′H-spiro[indazole-5,4′-piperidin]-1′-yl)carbonyl]-6-(methylamino)pyridin-2-yl}benzoic acid [Example 12]	152 nM	94.5 nM	–
COc1cc(C(=O)N2CCC3(CC2)CC(=O)c2c(cnn2C(C)C)C3)cc(-c2ccc(C(=O)O)cc2)n1 [Example 9, 4-{4-[(1-isopropyl-7-oxo-1,4,6,7-tetrahydro-1′H-spiro[indazole-5,4′-piperidin]-1′-yl)carbonyl]-6-methoxypyridin-2-yl}benzoic acid]	–	29.7 nM	30.9 nM
